Experimental data as given in patent US20140315889A1, “HYDROXAMATE DERIVATIVES FOR HDAC INHIBITOR, AND THE PHARMACEUTICAL COMPOSITION COMPRISING THEREOF” (CHONG KUN DANG PHARMACEUTICAL CORP., priority 2011, published 2014).
Like-named read-outs stand apart in the source and are kept apart here.

Legend:
Assay type in all cases: biochemical
HDAC4 = HDAC4 (Homo sapiens, UniProt P56524); experiment: HDAC enzyme activity test, HDAC4; conditions: Table 11, eleven HDAC isozymes; read-out: Inhibition ability (IC50) against HDAC4
Procedure: (§1) Then, 0.3 μg of enzyme and 10 μM of substrate per well were added, reacted at 30° C. for 60 minutes. Thereto, Fluor de Lys® Developer II (BML-KI176) was added and reacted for 30 minutes. […] From the data, the respective IC50 were calculated by GraphPad Prism 4.0 program.

HDAC8 = molecular target: T1, HDAC8 (Homo sapiens, UniProt Q9BY41); experiment: HDAC enzyme activity test, HDAC8; conditions: Table 11, eleven HDAC isozymes; read-out: Inhibition ability (IC50) against HDAC8
T1 sequence (Q9BY41 1-377): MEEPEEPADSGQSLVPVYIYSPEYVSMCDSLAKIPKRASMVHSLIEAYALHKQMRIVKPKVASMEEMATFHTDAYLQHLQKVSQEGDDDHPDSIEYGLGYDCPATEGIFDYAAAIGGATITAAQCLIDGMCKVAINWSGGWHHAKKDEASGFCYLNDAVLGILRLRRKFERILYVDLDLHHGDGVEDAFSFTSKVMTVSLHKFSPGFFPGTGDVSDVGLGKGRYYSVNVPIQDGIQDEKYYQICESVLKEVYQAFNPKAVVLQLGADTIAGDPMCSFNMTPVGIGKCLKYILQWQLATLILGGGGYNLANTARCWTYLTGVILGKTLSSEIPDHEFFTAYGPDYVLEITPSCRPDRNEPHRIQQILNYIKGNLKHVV
Procedure: as §1

HDAC7 = molecular target: T2, HDAC7 (Homo sapiens, UniProt Q8WUI4); experiment: HDAC enzyme activity test, HDAC7
T2 sequence (Q8WUI4 1-952): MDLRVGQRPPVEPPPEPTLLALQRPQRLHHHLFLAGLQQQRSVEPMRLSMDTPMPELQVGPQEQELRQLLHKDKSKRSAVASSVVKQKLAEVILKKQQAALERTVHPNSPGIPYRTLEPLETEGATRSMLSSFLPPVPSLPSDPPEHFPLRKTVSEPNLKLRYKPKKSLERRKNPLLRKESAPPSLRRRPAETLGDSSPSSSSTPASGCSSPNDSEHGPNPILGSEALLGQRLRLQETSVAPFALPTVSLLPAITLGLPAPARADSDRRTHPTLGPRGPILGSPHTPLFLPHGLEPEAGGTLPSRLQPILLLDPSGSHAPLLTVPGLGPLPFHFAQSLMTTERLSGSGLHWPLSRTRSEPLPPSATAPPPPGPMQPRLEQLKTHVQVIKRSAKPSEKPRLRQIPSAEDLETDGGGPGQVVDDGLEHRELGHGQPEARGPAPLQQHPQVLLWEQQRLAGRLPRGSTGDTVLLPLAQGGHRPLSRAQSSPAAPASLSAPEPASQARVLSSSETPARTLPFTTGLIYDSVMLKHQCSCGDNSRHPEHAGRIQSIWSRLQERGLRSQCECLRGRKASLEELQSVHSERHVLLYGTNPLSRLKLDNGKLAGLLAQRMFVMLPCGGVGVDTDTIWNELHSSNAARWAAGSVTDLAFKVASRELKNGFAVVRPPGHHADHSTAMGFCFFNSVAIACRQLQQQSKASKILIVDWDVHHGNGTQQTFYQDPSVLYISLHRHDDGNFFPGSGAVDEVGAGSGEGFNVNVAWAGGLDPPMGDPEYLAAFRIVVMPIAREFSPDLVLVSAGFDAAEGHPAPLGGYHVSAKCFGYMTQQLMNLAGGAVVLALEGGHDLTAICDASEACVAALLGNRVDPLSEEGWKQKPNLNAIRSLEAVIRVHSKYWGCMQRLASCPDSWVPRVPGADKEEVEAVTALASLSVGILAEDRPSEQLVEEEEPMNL
Procedure: as §1

Human recombinant HDAC1 = molecular target: T3, Human recombinant HDAC1 (Homo sapiens, UniProt Q13547); experiment: HDAC enzyme activity test, HDAC1
T3 construct: purchased Enzo Life Science Co. (named for the kit; assigned to the enzyme from the BML- catalogue prefix) BML-SE456
Procedure: as §1

HDAC11 = molecular target: T4, HDAC11 (Homo sapiens, UniProt Q96DB2); experiment: HDAC enzyme activity test, HDAC11; conditions: Table 11, eleven HDAC isozymes; read-out: Inhibition ability (IC50) against HDAC11
T4 sequence (Q96DB2 1-347): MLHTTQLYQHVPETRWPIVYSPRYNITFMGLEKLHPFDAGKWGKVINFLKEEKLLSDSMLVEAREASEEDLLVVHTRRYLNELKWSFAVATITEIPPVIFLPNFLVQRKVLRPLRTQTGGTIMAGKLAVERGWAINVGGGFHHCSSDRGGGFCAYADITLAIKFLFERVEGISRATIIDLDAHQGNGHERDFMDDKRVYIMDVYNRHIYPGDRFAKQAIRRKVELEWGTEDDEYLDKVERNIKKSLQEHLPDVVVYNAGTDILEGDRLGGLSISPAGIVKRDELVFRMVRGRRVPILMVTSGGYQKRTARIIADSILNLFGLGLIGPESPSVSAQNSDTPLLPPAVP
Procedure: as §1

HDAC10 = molecular target: T5, HDAC10 (Homo sapiens, UniProt Q969S8); experiment: HDAC enzyme activity test, HDAC10; conditions: Table 11, eleven HDAC isozymes; read-out: Inhibition ability (IC50) against HDAC10
T5 sequence (Q969S8 1-669): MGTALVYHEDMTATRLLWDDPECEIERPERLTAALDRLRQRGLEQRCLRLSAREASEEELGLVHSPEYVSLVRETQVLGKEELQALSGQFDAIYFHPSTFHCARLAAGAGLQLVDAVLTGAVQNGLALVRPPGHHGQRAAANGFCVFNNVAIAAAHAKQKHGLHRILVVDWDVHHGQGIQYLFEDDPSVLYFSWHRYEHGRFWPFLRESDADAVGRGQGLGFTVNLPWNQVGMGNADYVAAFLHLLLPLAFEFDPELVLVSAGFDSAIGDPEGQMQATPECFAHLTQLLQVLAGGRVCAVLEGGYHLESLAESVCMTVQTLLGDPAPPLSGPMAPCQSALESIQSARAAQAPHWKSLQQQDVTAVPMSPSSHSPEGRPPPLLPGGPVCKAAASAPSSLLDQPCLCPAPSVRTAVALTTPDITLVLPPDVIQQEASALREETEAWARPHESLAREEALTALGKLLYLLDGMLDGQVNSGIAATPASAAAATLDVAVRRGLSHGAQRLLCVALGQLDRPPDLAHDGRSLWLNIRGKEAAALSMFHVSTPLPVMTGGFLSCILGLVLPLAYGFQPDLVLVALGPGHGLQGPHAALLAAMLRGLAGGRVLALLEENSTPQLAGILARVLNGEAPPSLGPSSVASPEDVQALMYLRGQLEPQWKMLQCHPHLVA
Procedure: as §1

[1] = Table 12, read-out: Inhibition ability (IC50) HDAC1
[2] = Table 11, eleven HDAC isozymes, read-out: Inhibition ability (IC50) against HDAC1

HDAC4, sequence (P56524 whole entry, species assumed): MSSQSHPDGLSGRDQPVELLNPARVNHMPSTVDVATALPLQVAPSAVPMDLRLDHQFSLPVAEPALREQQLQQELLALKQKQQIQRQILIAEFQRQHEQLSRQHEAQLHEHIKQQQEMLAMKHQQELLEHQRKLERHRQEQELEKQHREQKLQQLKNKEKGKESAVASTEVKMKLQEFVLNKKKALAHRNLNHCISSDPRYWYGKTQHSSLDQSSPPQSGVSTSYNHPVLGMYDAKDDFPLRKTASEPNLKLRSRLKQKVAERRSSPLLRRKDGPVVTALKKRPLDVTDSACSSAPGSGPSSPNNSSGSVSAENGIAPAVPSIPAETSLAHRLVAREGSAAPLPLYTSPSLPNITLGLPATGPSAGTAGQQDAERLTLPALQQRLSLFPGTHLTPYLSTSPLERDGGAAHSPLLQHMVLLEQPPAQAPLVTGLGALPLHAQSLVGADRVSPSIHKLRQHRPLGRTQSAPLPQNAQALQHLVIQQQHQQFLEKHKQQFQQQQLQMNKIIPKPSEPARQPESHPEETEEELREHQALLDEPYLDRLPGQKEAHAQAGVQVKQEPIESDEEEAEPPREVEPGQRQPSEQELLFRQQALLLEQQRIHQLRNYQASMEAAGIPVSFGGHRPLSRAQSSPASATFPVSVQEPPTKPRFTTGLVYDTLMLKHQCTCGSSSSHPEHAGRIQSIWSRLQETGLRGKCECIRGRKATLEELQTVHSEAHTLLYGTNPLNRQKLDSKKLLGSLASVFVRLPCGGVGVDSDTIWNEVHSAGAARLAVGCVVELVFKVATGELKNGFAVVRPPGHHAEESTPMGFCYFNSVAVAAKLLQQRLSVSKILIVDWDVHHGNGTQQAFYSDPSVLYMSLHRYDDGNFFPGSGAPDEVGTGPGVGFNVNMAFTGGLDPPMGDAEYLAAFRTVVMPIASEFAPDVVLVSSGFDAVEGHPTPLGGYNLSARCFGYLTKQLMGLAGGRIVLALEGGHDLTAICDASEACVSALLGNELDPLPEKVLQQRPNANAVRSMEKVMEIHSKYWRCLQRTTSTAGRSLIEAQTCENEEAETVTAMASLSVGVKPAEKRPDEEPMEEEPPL
T3 sequence (Q13547 whole entry): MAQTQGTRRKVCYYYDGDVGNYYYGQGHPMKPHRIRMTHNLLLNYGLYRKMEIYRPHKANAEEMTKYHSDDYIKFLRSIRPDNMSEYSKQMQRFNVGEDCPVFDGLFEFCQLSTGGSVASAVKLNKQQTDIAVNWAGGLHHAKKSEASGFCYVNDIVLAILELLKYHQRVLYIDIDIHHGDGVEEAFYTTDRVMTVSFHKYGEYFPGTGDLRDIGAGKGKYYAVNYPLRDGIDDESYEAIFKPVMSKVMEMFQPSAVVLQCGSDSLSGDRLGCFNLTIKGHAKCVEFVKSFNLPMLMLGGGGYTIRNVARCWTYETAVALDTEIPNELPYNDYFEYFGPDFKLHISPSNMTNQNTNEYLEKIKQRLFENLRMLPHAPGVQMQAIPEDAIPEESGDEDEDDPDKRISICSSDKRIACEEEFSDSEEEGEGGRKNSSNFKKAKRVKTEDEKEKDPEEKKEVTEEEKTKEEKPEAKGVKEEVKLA

| SMILES | IC50 (HDAC4) | IC50 (HDAC8) | IC50 (HDAC7) | IC50 (Human recombinant HDAC1; [1]) | IC50 (Human recombinant HDAC1; data of Table 11, read-out: IC50 against HDAC1) | IC50 (HDAC11) | IC50 (HDAC10) | IC50 (HDAC7; Table 11, eleven HDAC isozymes, read-out: Inhibition ability (IC50) against HDAC7) | IC50 (Human recombinant HDAC1; [2]) |
| --- | --- | --- | --- | --- | --- | --- | --- | --- | --- |
| O=C(NO)c1ccc(Cn2c3c(c4ccccc42)C(=O)C(CN2CCOCC2)CC3)cc1 (centres unmarked) [Compound 87, N-hydroxy-4-((3-(morpholinomethyl)-4-oxo-1,2,3,4-tetrahydrocarbazol-9-yl)methyl)benzamide] | 0.934 µM | 1.28 µM | 3.28 µM | 3.07 µM | 11.2 µM | 37.5 µM | 15.3 µM | – | – |
| CC1(C)CC(=O)c2c(C(F)(F)F)nn(Cc3ccc(C(=O)NO)cc3)c2C1 [Compound 237, 4-((6,6-dimethyl-4-oxo-3-(trifluoromethyl)-4,5,6,7-tetrahydro-1H-indazol-1-yl)methyl)-N-hydroxybenzamide] | 4.99 µM | 3.93 µM | – | 3.91 µM | – | 33.9 µM | 76.1 µM | – | – |
| CN1CCN(C(=O)N(CCCCCCC(=O)NO)c2ccc(-c3ccc4cnn(C)c4c3)cc2)CC1 [CKD-581, reference compound] | 1.68 µM | 0.0861 µM | – | – | – | 0.00152 µM | 0.00266 µM | 0.0106 µM | 0.000673 µM |
| O=C(NO)c1ccc(Cn2c3c(c4ccccc42)C(=O)N(CCN2CCOCC2)CC3)cc1 [Compound 249, N-hydroxy-4-((2-(2-morpholinoethyl)-1-oxo-1,2,3,4-tetrahydropyrido[4,3-b]indol-5-yl)methyl)benzamide] | 0.255 µM | 0.22 µM | 3.42 µM | 3.46 µM | – | 5.53 µM | 53 µM | – | 8.47 µM |
| CN1CCN(CC2CCc3c(c4cc(F)ccc4n3Cc3ccc(C(=O)NO)cc3)C2=O)CC1 (centres unmarked) [Compound 142, 4-((6-fluoro-3-((4-methylpiperazin-1-yl)methyl)-4-oxo-1,2,3,4-tetrahydrocarbazol-9-yl)methyl)-N-hydroxybenzamide] | 2.21 µM | 1.06 µM | 4.53 µM | 2.65 µM | – | 11.1 µM | 37 µM | – | 12.2 µM |
